Experimental data from ChEMBL document CHEMBL6115017, “Discovery of DFV890, a Potent Sulfonimidamide-Containing NLRP3 Inflammasome Inhibitor” (J Med Chem, 2025).
Values after ≈ are worked out from the molar mass of the structure shown.

Legend:
[1] = Fraction unbound in human plasma; format: ADME, cell-free
[2] = Clearance in Sprague-Dawley rat at 5 mg/kg, po by LC-MS analysis; format: ADME, organism-based; conditions: in vivo
[3] = Half life in Sprague-Dawley rat at 5 mg/kg, po by LC-MS analysis; format: ADME, organism-based; conditions: in vivo
[4] = Metabolic stability in rat hepatocytes assessed as intrinsic clearance measured per 10^6 cells; format: ADME, cell-based, Hepatocyte; conditions: read-out: CLH
[5] = Metabolic stability in human hepatocytes assessed as intrinsic clearance measured per 10^6 cells; format: ADME, cell-based, Hepatocyte; conditions: read-out: CLH
[6] = Volume of distribution at steady state in Sprague-Dawley rat at 5 mg/kg, po by LC-MS analysis; format: ADME, organism-based; conditions: in vivo
[7] = Oral bioavailability in Sprague-Dawley rat at 5 mg/kg administered through oral gavage by LC-MS analysis; format: ADME, organism-based; conditions: in vivo
[8] = Solubility of the compound in PBS at pH 7.4; format: physicochemical
[9] = Fraction unbound in Sprague-Dawley rat plasma; format: ADME, cell-free

| fraction unbound [1] | CL/F [2] | half-life [3] | hepatocyte CLint [4] | hepatocyte CLint [5] | Vdss [6] | bioavailability [7] | solubility [8] | fraction unbound [9] | SMILES |
| --- | --- | --- | --- | --- | --- | --- | --- | --- | --- |
| 0.009 | 3.7 mL/min/kg | 2.6 h | 5.2 µL/min/1e6 cells | 0.63 µL/min/1e6 cells | 0.29 L/kg | – | – | – | CC(C)(O)c1cnc([S@](N)(=O)=NC(=O)Nc2c3c(cc4c2CCC4)CCC3)s1 |
| 0.014 | 3.21 mL/min/kg | 4.13 h | 5.2 µL/min/1e6 cells | 4.2 µL/min/1e6 cells | 0.353 L/kg | 70% | – | 0.02 | CC(C)(O)c1csc([S@](N)(=O)=NC(=O)Nc2c3c(cc4c2CCC4)CCC3)n1 |

Further lines, the molecule ahead of its results:

| SMILES | fraction unbound [1] | CL/F [2] | half-life [3] | hepatocyte CLint [4] | hepatocyte CLint [5] | Vdss [6] | bioavailability [7] | solubility [8] | fraction unbound [9] |
| --- | --- | --- | --- | --- | --- | --- | --- | --- | --- |
| CC(C)(O)c1coc(S(=O)(=O)NC(=O)Nc2c3c(cc4c2CCC4)CCC3)c1 | 0.007 | 15.9 mL/min/kg | 0.635 h | – | – | 0.271 L/kg | 47% | 1080 µg/mL (≈ 2680 µM) | 0.013 |
| CC(C)(O)c1ncc([S@](N)(=O)=NC(=O)Nc2c3c(c(F)c4c2CCC4)CCC3)s1 | 0.003 | 1.08 mL/min/kg | 3.07 h | 3.7 µL/min/1e6 cells | 3 µL/min/1e6 cells | 0.178 L/kg | 68% | 8 µg/mL (≈ 18.2 µM) | 0.007 |
| CC(C)(O)c1nc([S@](N)(=O)=NC(=O)Nc2c3c(cc4c2CCC4)CCC3)cs1 | 0.057 | 11.1 mL/min/kg | 2.36 h | 5.4 µL/min/1e6 cells | 1.6 µL/min/1e6 cells | 0.541 L/kg | 100% | – | 0.05 |
| CC(C)(O)c1csc([S@](N)(=O)=NC(=O)Nc2c3c(cc4c2CCC4)CCC3)c1 | 0.009 | 1.15 mL/min/kg | 2.91 h | 2.5 µL/min/1e6 cells | 3.6 µL/min/1e6 cells | 0.191 L/kg | 50% | 24 µg/mL (≈ 57.2 µM) | 0.011 |
